Laboratory results as given in paper PMC12090182, “Repurposing of the RIPK1-Selective Benzo[1,4]oxazepin-4-one Scaffold for the Development of a Type III LIMK1/2 Inhibitor” (ACS Chemical Biology, 2025).

Experiments:
Experiment in all cases: biochemical
Assay type in all cases: binding
[1] = target: 468 kinases including some pathogenic mutants (Homo sapiens, UniProt O14730); details: RIOK3 (Entrez RIOK3), 100 nM; read-out: Percent Control
[2] = target: 468 kinases including some pathogenic mutants (Homo sapiens, UniProt O15264); details: p38-delta (Entrez MAPK13), 1000 nM; read-out: Percent Control
[3] = target: 468 kinases including some pathogenic mutants (Homo sapiens, UniProt O94804); details: LOK (Entrez STK10), 100 nM; read-out: Percent Control
[4] = target: 468 kinases including some pathogenic mutants (Homo sapiens, UniProt P0C1S8); details: WEE2 (Entrez WEE2), 100 nM; read-out: Percent Control
[5] = target: 468 kinases including some pathogenic mutants (Homo sapiens, UniProt P10721, D816V); details: read-out: Percent Control
468 kinases including some pathogenic mutants (Homo sapiens, UniProt P10721, D816V), sequence (P10721 26-976 D816V): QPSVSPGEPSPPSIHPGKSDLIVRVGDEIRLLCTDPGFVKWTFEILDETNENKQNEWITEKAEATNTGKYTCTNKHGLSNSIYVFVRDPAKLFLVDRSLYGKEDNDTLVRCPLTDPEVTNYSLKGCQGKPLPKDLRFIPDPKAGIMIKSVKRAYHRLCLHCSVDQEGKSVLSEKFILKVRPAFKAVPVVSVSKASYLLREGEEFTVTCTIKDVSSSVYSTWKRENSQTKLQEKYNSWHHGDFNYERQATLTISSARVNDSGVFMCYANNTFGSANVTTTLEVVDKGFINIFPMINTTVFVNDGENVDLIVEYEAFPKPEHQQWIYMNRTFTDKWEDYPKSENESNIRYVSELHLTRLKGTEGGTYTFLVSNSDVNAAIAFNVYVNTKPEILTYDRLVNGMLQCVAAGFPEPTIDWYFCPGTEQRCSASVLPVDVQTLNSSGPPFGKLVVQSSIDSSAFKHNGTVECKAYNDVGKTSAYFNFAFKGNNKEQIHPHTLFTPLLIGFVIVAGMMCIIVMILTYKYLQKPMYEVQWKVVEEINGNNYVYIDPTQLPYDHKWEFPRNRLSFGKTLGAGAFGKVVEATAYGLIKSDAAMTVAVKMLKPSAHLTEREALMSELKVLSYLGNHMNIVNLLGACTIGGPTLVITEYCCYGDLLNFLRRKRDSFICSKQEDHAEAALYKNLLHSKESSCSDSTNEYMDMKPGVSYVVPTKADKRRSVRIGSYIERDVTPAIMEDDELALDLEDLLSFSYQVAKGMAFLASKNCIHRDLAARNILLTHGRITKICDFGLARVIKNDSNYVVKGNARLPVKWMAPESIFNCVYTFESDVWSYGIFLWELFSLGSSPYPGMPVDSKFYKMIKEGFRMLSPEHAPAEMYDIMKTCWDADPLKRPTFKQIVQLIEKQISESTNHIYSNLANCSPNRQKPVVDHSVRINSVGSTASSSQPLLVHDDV

[6] = target: 468 kinases including some pathogenic mutants (Homo sapiens, UniProt P22455); details: FGFR4 (Entrez FGFR4), 100 nM; read-out: Percent Control
468 kinases including some pathogenic mutants (Homo sapiens, UniProt P22455), sequence (P22455 22-802, change not shown): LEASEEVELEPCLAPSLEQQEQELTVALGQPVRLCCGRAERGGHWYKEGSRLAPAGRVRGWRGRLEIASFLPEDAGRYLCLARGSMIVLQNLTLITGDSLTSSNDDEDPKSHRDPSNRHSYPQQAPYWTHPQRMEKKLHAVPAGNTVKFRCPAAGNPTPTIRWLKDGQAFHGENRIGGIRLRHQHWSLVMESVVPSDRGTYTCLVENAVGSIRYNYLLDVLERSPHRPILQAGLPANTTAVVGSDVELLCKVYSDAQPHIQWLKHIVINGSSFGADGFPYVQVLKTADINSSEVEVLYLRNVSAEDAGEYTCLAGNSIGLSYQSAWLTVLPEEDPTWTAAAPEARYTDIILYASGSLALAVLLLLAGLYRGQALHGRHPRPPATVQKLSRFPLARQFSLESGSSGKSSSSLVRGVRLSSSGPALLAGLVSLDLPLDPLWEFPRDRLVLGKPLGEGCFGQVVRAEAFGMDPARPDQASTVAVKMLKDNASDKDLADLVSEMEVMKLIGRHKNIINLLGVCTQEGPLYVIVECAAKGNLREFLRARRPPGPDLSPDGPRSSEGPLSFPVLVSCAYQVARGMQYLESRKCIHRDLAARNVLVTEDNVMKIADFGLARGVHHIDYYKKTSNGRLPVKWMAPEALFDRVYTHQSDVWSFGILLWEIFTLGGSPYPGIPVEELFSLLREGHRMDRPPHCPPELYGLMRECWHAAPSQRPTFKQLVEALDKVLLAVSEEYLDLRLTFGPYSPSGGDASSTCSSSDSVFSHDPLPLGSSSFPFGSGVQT

[7] = target: 468 kinases including some pathogenic mutants (Homo sapiens, UniProt P29322); details: EPHA8 (Entrez EPHA8), 100 nM; read-out: Percent Control
[8] = target: 468 kinases including some pathogenic mutants (Homo sapiens, UniProt P36888, D835V); details: read-out: Percent Control
[9] = target: 468 kinases including some pathogenic mutants (Homo sapiens, UniProt P41743); details: PRKCI (Entrez PRKCI), 100 nM; read-out: Percent Control
[10] = target: 468 kinases including some pathogenic mutants (Homo sapiens, UniProt Q02750); details: MEK1 (Entrez MAP2K1), 1000 nM; read-out: Percent Control
468 kinases including some pathogenic mutants (Homo sapiens, UniProt Q02750), sequence (Q02750 whole entry, change not shown): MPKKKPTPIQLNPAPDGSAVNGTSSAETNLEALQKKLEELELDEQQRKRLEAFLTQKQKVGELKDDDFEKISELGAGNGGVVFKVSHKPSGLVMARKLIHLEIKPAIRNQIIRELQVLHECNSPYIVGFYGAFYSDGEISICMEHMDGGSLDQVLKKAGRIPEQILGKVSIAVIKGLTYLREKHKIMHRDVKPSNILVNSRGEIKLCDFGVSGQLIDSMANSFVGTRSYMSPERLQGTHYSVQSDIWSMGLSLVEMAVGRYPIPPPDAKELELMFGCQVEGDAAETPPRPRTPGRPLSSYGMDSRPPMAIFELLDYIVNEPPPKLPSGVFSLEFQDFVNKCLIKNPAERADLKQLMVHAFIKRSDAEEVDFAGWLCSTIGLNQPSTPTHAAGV

[11] = target: 468 kinases including some pathogenic mutants (Homo sapiens, UniProt Q07002); details: read-out: Percent Control
[12] = target: 468 kinases including some pathogenic mutants (Homo sapiens, UniProt Q08881); details: ITK (Entrez ITK), 100 nM; read-out: Percent Control
[13] = target: 468 kinases including some pathogenic mutants (Homo sapiens, UniProt Q13164); details: ERK5 (Entrez MAPK7), 100 nM; read-out: Percent Control
[14] = target: 468 kinases including some pathogenic mutants (Homo sapiens, UniProt Q13233); details: MAP3K1 (Entrez MAP3K1), 1000 nM; read-out: Percent Control
[15] = target: 468 kinases including some pathogenic mutants (Homo sapiens, UniProt Q14680); details: MELK (Entrez MELK), 1000 nM; read-out: Percent Control
[16] = target: 468 kinases including some pathogenic mutants (Homo sapiens, UniProt Q15139); details: PRKD1 (Entrez PRKD1), 100 nM; read-out: Percent Control
[17] = target: 468 kinases including some pathogenic mutants (Homo sapiens, UniProt Q6ZN16); details: MAP3K15 (Entrez MAP3K15), 1000 nM; read-out: Percent Control
[18] = target: 468 kinases including some pathogenic mutants (Homo sapiens, UniProt Q7L7X3); details: TAOK1 (Entrez TAOK1), 1000 nM; read-out: Percent Control
[19] = target: 468 kinases including some pathogenic mutants (Homo sapiens, UniProt Q8IVH8); details: MAP4K3 (Entrez MAP4K3), 100 nM; read-out: Percent Control
468 kinases including some pathogenic mutants (Homo sapiens, UniProt Q8IVH8), sequence (Q8IVH8 whole entry, change not shown): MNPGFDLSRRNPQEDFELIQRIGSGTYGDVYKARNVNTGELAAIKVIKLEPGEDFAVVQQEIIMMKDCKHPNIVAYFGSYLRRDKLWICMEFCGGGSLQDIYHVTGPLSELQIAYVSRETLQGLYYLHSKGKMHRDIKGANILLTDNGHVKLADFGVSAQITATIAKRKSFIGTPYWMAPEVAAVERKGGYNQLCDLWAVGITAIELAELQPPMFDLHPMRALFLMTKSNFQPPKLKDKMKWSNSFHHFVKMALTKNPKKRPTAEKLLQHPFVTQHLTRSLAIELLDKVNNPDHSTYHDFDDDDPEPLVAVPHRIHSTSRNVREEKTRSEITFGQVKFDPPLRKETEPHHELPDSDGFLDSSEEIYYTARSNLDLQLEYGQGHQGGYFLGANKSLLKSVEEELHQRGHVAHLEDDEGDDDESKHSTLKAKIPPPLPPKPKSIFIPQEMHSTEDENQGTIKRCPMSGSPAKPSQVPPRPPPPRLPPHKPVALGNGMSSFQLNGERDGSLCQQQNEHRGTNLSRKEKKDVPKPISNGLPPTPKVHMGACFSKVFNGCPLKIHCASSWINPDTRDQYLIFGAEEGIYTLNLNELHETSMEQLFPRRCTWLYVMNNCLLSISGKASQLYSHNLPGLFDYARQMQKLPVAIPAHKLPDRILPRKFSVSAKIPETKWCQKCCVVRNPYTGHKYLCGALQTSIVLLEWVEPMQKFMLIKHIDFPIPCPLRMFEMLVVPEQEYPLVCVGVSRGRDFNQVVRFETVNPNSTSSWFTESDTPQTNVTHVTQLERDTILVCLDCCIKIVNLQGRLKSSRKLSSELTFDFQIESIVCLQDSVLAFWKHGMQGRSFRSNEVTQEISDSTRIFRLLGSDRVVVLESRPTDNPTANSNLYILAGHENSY

[20] = target: 468 kinases including some pathogenic mutants (Homo sapiens, UniProt Q8NEV4); details: MYO3A (Entrez MYO3A), 100 nM; read-out: Percent Control
[21] = target: 468 kinases including some pathogenic mutants (Homo sapiens, UniProt Q8NG66); details: NEK11 (Entrez NEK11), 100 nM; read-out: Percent Control
[22] = target: 468 kinases including some pathogenic mutants (Homo sapiens, UniProt Q8TBX8); details: PIP5K2C (Entrez PIP4K2C), 100 nM; read-out: Percent Control
[23] = target: 468 kinases including some pathogenic mutants (Homo sapiens, UniProt Q96NX5); details: CAMK1G (Entrez CAMK1G), 100 nM; read-out: Percent Control
[24] = target: 468 kinases including some pathogenic mutants (Homo sapiens, UniProt Q96RR4); details: CAMKK2 (Entrez CAMKK2), 100 nM; read-out: Percent Control
468 kinases including some pathogenic mutants (Homo sapiens, UniProt Q96RR4), sequence (Q96RR4 whole entry, change not shown): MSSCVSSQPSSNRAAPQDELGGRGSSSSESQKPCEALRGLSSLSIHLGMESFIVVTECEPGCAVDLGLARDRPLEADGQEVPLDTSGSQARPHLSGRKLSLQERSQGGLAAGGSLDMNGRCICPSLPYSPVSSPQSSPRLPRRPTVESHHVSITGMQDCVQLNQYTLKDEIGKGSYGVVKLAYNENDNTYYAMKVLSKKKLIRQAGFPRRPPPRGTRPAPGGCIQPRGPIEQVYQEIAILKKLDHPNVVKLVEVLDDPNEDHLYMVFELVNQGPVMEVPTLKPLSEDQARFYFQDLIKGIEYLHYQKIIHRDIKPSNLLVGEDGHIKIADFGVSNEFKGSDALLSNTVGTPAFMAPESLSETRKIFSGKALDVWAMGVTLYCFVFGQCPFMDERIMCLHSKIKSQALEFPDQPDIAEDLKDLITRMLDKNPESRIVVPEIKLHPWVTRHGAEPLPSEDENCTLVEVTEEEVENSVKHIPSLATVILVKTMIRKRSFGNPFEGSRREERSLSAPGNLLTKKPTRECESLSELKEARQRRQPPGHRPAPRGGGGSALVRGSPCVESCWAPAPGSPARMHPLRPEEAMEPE

[25] = target: 468 kinases including some pathogenic mutants (Homo sapiens, UniProt Q9BYP7); details: WNK3 (Entrez WNK3), 100 nM; read-out: Percent Control
[26] = target: 468 kinases including some pathogenic mutants (Homo sapiens, UniProt Q9H2G2); details: SLK (Entrez SLK), 100 nM; read-out: Percent Control
[27] = target: 468 kinases including some pathogenic mutants (Homo sapiens, UniProt Q9UK32); details: read-out: Percent Control
468 kinases including some pathogenic mutants (Homo sapiens, UniProt Q9UK32), sequence (Q9UK32 whole entry, stated change not applied): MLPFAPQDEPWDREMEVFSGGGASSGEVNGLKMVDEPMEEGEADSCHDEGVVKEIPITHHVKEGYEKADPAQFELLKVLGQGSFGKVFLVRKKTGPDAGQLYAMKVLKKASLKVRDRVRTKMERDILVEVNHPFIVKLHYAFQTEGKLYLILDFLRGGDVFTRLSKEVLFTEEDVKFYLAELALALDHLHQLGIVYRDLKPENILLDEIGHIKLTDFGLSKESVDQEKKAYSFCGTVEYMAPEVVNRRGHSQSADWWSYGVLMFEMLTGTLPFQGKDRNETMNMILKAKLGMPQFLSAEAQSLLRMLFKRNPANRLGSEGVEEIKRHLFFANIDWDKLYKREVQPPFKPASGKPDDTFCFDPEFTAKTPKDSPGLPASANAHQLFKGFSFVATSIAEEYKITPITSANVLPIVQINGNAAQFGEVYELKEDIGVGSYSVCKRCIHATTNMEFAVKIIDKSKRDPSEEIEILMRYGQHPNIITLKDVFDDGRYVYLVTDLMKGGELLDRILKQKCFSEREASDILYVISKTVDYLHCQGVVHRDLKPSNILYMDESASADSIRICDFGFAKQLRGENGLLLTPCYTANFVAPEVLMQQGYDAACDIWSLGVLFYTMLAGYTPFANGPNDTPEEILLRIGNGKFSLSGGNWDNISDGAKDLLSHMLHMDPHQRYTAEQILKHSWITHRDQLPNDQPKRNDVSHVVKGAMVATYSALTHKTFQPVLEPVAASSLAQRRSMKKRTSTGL

[28] = target: 468 kinases including some pathogenic mutants (Homo sapiens, UniProt Q9UM73, L1196M); details: read-out: Percent Control
[29] = target: 468 kinases including some pathogenic mutants (Homo sapiens, UniProt Q9Y2H1); details: NDR2 (Entrez STK38L), 100 nM; read-out: Percent Control

468 kinases including some pathogenic mutants (Homo sapiens, UniProt O14730), sequence (O14730 whole entry, stated change not applied): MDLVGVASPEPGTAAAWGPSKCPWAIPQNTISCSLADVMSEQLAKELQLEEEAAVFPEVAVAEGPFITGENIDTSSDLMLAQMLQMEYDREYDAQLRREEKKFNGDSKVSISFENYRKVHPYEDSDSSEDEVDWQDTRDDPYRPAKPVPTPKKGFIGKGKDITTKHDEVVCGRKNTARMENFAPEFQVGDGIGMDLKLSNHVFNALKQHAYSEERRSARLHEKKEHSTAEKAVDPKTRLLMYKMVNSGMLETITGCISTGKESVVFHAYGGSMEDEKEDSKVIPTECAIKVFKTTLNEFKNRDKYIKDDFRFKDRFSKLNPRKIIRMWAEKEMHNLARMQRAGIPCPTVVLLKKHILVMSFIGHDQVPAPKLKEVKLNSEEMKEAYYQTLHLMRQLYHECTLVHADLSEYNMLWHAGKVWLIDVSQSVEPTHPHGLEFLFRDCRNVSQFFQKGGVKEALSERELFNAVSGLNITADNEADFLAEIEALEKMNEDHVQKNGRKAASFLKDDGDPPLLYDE

SMILES: CN1C(=O)[C@@H](N2CCc3c(nn(Cc4ccccc4)c3C(N)=O)C2=O)COc2cc(Cl)ccc21 [Compound 10, (S)-2-benzyl-6-(8-chloro-5-methyl-4-oxo-2,3,4,5-tetrahydrobenzo[b][1,4]oxazepin-3-yl)-7-oxo-4,5,6,7-tetrahydro-2H-pyrazolo[3,4-c]pyridine-3-carboxamide]
- remaining activity at 0.1 µM [1]: 63%
- remaining activity at 1 µM [2]: 100%
- remaining activity at 0.1 µM [3]: 57%
- remaining activity at 0.1 µM [4]: 77%
- remaining activity at 1 µM [5]: 100%
- remaining activity at 0.1 µM [6]: 81%
- remaining activity at 0.1 µM [7]: 87%
- remaining activity at 0.1 µM [8]: 88%
- remaining activity at 0.1 µM [9]: 81%
- remaining activity at 1 µM [10]: 100%
- remaining activity at 0.1 µM [11]: 100%
- remaining activity at 0.1 µM [12]: 79%
- remaining activity at 0.1 µM [13]: 85%
- remaining activity at 1 µM [14]: 100%
- remaining activity at 1 µM [15]: 100%
- remaining activity at 0.1 µM [16]: 65%
- remaining activity at 1 µM [17]: 100%
- remaining activity at 1 µM [18]: 100%
- remaining activity at 0.1 µM [19]: 83%
- remaining activity at 0.1 µM [20]: 83%
- remaining activity at 0.1 µM [21]: 76%
- remaining activity at 0.1 µM [22]: 91%
- remaining activity at 0.1 µM [23]: 72%
- remaining activity at 0.1 µM [24]: 76%
- remaining activity at 0.1 µM [25]: 73%
- remaining activity at 0.1 µM [26]: 89%
- remaining activity at 1 µM ([27]; RSK4(Kin.Dom.1-N-terminal) (Entrez RPS6KA6), 1000 nM): 100%
- remaining activity at 0.1 µM ([27]; RSK4(Kin.Dom.2-C-terminal) (Entrez RPS6KA6), 100 nM): 90%
- remaining activity at 0.1 µM [28]: 89%
- remaining activity at 0.1 µM [29]: 71%
